Assay results published in US20110301142A1, “ANTAGONISTS OF LYSOPHOSPHATIDIC ACID RECEPTORS” (priority 2008, published 2011).

Legend:
human LPA1 = target: T1, human LPA1 (Homo sapiens, UniProt Q92633); experiment: LPA1 calcium flux assay (HLPA1 Ca Flux); assay type: cell-based; conditions: Human LPA1 expressing CHO cells, stimulated with 10 nM LPA
T1 construct: the full-length cDNA for human LPA1 was obtained by PCR of the reverse transcription reaction; expressed in transfected cells
How it was run: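 CHO cells stably expressing cloned human LPA1, serum-starved overnight and loaded with Calcium 4 dye, were preincubated 30 min at room temperature with compound. Cells were then challenged with 10 nM LPA and intracellular Ca2+ measured; IC50 values came from titration curves.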

human LPA3 = target: T2, human LPA3 (Homo sapiens, UniProt Q9UBY5); experiment: LPA3 calcium flux assay; assay type: cell-based; conditions: Human LPA3 expressing CHO cells, stimulated with 10 nM LPA; read-out: HLPA3 Ca Flux IC50
T2 construct: The full-length cDNA fragment for human LPA3 was obtained by PCR from the vector; expressed in transfected cells; cDNA from the Missouri S&T cDNA Resource Center
T2 sequence (Q9UBY5 1-353): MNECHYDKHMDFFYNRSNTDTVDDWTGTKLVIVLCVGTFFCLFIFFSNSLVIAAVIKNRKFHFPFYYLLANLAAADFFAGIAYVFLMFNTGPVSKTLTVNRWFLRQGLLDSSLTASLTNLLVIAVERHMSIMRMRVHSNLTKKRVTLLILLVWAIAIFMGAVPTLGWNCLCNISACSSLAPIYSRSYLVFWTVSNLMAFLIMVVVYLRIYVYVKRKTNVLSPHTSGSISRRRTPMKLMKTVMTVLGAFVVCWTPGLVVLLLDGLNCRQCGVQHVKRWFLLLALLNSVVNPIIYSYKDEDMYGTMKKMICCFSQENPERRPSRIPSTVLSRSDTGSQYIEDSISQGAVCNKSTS
How it was run: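 Stably transfected CHO cells, serum-starved overnight, loaded with Calcium 4 dye 1 h at 37 °C in HBSS/20 mM Hepes with 0.3% fatty-acid-free HSA. Compounds preincubated 30 min at room temperature, then cells stimulated with 10 nM LPA; intracellular Ca2+ read by fluorescence; IC50 from titration curves.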

[1] = test system: A2058 human melanoma cells; experiment: LPA1 chemotaxis assay; assay type: cell-based; conditions: 100 nM LPA, read-out: IC50, inhibition of LPA-driven chemotaxis
Description: Chemotaxis of the A2058 human melanoma cells was measured using the Neuroprobe ChemoTx® System plates (8 μm pore size, 5.7 mm diameter sites). The filter sites were coated with 0.001% fibronectin (Sigma) in 20 mM Hepes, pH 7.4 and allowed to dry. A2058 cells were serum-starved for 24 hours, then harvested with Cell Stripper and resuspended in DMEM containing 0.1% fatty-acid-free bovine serum albumin (BSA) to a concentration of 1×10^6/ml. Cells were mixed with an equal volume of test compound (2×) in DMEM containing 0.1% fatty-acid-free BSA and incubated at 37° C. for 15 minutes. LPA (100 nM in DMEM containing 0.1% fatty-acid-free BSA) or vehicle was added to each well of the lower chamber and 50 μl of the cell suspension/test compound mix was applied to the upper portion of the ChemoTx plate. Plates were incubated at 37° C. for three hours and then the cells removed from the upper portion by rinsing with PBS and scraping. The filter was dried then stained with HEMA 3 Staining System (Fisher Scientific). The absorbance of the filter was read at 590 nm and IC50s were determined using Symyx Assay Explorer.

Female C57BL/6 mice = experiment: Mouse carbon tetrachloride (CCl4)-induced liver fibrosis model; assay type: in vivo; conditions: for collagen deposition in the liver as compared to the untreated group: CCl4-induced liver fibrosis
Description: Female C57BL/6 mice (Harlan, 20-25 g) housed 4/cage are given free access to food and water and allowed to acclimate for at least 7 days prior to test initiation. After the habituation phase, mice receive CCl4 (0.5-1.0 ml/kg body weight) diluted in corn oil vehicle (100 μL volume) via i.p. injection twice a week for 4-6 weeks. (Higazi, A. A. et al., Clin Exp Immunol. 2008 April; 152(1):163-73. Epub 2008 Feb. 14.). Control mice receive an equivalent volume of corn oil vehicle only. Test compound or vehicle is delivered po, ip or sc daily. At the end of the study (4-6 weeks after first i.p. injection of CCl4), mice are sacrificed using inhaled isoflurane and blood is drawn via cardiac puncture for subsequent analysis of ALT/AST levels. The liver is harvested, and one half of the liver is frozen at −80° C. and the other half is fixed in 10% neutral buffered formalin for histological assessment of liver fibrosis using light microscopy (10× magnification). Liver tissue homogenates are analyzed for collagen levels using Sircol (Biocolor Ltd, UK). Fixed Liver tissue is stained using hematoxylin and eosin (H&E) and trichrome and liver fibrosis is determined by quantitative, computer-assisted densitometry of collagen in liver tissue sections using light microscopy. Plasma and liver tissue lysates are also analyzed for concentrations of inflammatory, pro-fibrotic and tissue injury biomarkers including transforming growth factor β1, hyaluronic acid, tissue inhibitor of metalloproteinase-1, matrix matelloproteinase-7, connective tissue growth factor and lactate dehydrogenase activity, using commercially available ELISA. The resulting data are plotted using Graphpad prism and statistical differences between groups determined.

T1 sequence (Q92633 whole entry): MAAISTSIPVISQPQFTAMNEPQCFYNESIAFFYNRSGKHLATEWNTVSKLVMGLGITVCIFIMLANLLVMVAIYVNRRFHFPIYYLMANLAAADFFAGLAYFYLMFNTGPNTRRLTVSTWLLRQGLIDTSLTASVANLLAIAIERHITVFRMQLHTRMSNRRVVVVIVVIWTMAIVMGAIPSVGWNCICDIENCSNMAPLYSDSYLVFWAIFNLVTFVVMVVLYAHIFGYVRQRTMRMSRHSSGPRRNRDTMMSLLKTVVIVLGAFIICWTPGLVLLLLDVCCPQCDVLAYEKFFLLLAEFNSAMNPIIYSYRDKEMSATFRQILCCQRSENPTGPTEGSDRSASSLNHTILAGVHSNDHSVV

| Structure (SMILES) | IC50 (human LPA1) [nM] | IC50 (human LPA3) [nM] | IC50 [1] [nM] | effect on collagen deposition compared to pirfenidone (Female C57BL/6 mice; 30 mg/kg, po, qd) | collagen deposition in the liver as compared to the untreated group (Female C57BL/6 mice) |
| --- | --- | --- | --- | --- | --- |
| Cc1noc(-c2ccc(-c3ccc(CC(=O)O)cc3)cc2)c1NC(=O)O[C@H](C)c1ccccc1Cl [Compound 1-88, (4′-{4-[(R)-1-(2-Chloro-phenyl)-ethoxycarbonylamino]-3-methyl-isoxazol-5-yl}-biphenyl-4-yl)-acetic acid] | < 300 | 1000 to 50000 | < 300 | same effect on collagen deposition as pirfenidone | significantly reduced |
| Cc1noc(-c2ccc(-c3ccc(CC(=O)O)cc3)cc2)c1NC(=O)O[C@H](C)c1ccccc1 [Compound 1-115] | < 300 | 1000 to 50000 | < 300 |  | significantly reduced |
